{"source": "ChEMBL document CHEMBL4609979", "about": "“Design of enkephalin modifications protected from brain extracellular peptidases providing long-term analgesia” (Bioorg Med Chem, 2020)", "key": {"[1]": {"assay": "Stability in bovine brain synaptosomes assessed as compound remaining at 0.35 mM incubated for 30 mins by thin layer chromatography analysis", "assay_type": "ADME, subcellular, Bos taurus", "details": "cattle"}, "[2]": {"assay": "Stability in bovine brain synaptosomes assessed as compound remaining at 0.35 mM incubated for 3 hrs by thin layer chromatography analysis", "assay_type": "ADME, subcellular, Bos taurus", "details": "cattle; for remaining at 3 h, 350 µM: brain synaptosomes, read-out: Stability"}, "[3]": {"tested_on": "Rattus norvegicus", "assay": "Analgesic activity in Wistar rat assessed as increase in tail flick latency at 0.4 uM/kg administered intranasally and measured upto 120 mins by tail-flick test", "assay_type": "functional, organism-based"}, "[4]": {"assay": "Acute toxicity in Wistar rat assessed as animal death at 2 uM/kg administered intranasally and measured after 20 mins", "details": "in vivo, inhaled_or_intranasal"}, "[5]": {"assay": "Acute toxicity in Wistar rat assessed as nausea at 2 uM/kg administered intranasally and measured after 20 mins", "details": "in vivo, inhaled_or_intranasal"}, "[6]": {"assay": "Acute toxicity in Wistar rat assessed as animal activity at 2 uM/kg administered intranasally and measured after 20 mins", "details": "in vivo, inhaled_or_intranasal"}, "[7]": {"assay": "Acute toxicity in Wistar rat assessed as sleep at 2 uM/kg administered intranasally and measured after 20 mins", "details": "in vivo, inhaled_or_intranasal"}, "[8]": {"assay": "Acute toxicity in Wistar rat assessed as irritability at 2 uM/kg administered intranasally and measured after 20 mins", "details": "in vivo, inhaled_or_intranasal"}, "[9]": {"assay": "Acute toxicity in Wistar rat assessed as appetite at 2 uM/kg administered intranasally and measured after 20 mins", "details": "in vivo, inhaled_or_intranasal"}, "[10]": {"assay": "Acute toxicity in Wistar rat assessed as heart rate at 2 uM/kg administered intranasally and measured after 20 mins", "details": "in vivo, inhaled_or_intranasal"}, "[11]": {"assay": "Acute toxicity in Wistar rat assessed as arterial pressure at 2 uM/kg administered intranasally and measured after 20 mins", "details": "in vivo, inhaled_or_intranasal"}, "[12]": {"assay": "Acute toxicity in Wistar rat assessed as pathological abnormalities in tissues at 2 uM/kg administered intranasally and measured after 20 mins", "details": "in vivo, inhaled_or_intranasal"}, "[13]": {"assay": "Toxicity in Wistar rat assessed as effect on memory by measuring average distance that has been travelled to previously placed platform at 0.4 uM/kg administered intranasally by Morris water maze test", "details": "in vivo, inhaled_or_intranasal"}, "[14]": {"assay": "Acute toxicity in Wistar rat assessed as pathological abnormalities in organs at 2 uM/kg administered intranasally and measured after 20 mins", "details": "in vivo, inhaled_or_intranasal"}}, "note": "The source made the active and inactive calls. The calls are words filed in the database; no cut-off is given here. Where a SMILES comes first, the peptide text is derived from it. [ ]: non-standard residue; d: D form. βAla = NCCC(=O)O"}
{"smiles": "C[C@H](N)C(=O)N[C@@H](CCCCN)C(=O)N[C@@H](Cc1ccccc1)C(=O)O", "note": "(H-Ala-Lys-Phe-OH)", "values": [{"measurement": "remaining at 0.5 h, 350 µM", "setting": "[1]; brain synaptosomes, read-out: Stability", "result": 0, "unit": "%"}]}
{"smiles": "CSCC[C@H](NC(=O)[C@H](Cc1ccccc1)NC(=O)CNC(=O)CNC(=O)[C@H](Cc1ccc(O)cc1)NC(=O)CCN)C(=O)NCCC(=O)O", "note": "(H-[βAla]YGGFM[βAla]-OH)", "values": [{"measurement": "remaining at 3 h, 350 µM", "setting": "[2]", "result": 55, "unit": "%"}, {"measurement": "Activity", "setting": "[3]", "result": "Active"}]}
{"smiles": "C[C@H](NC(=O)CCN)C(=O)N[C@@H](CCCCN)C(=O)N[C@@H](Cc1ccccc1)C(=O)NCCC(=O)O", "note": "(H-[βAla]AKF[βAla]-OH)", "values": [{"measurement": "Stability", "setting": "[2]; 3 h, 350 µM", "result": "Stable"}]}
{"smiles": "NCCC(=O)N[C@@H](Cc1ccc(O)cc1)C(=O)NCC(=O)NCC(=O)N[C@@H](Cc1ccccc1)C(N)=O", "note": "(H-[βAla]YGGF-NH2)", "values": [{"measurement": "remaining at 3 h, 350 µM", "setting": "[2]", "result": 75, "unit": "%"}, {"measurement": "Activity", "setting": "[3]", "result": "Active"}, {"measurement": "Activity", "setting": "[4]", "result": "Non-Toxic"}, {"measurement": "Activity", "setting": "[5]", "result": "Non-Toxic"}, {"measurement": "Activity", "setting": "[6]", "result": "Non-Toxic"}, {"measurement": "Activity", "setting": "[7]", "result": "Non-Toxic"}, {"measurement": "Activity", "setting": "[8]", "result": "Non-Toxic"}, {"measurement": "Activity", "setting": "[9]", "result": "Non-Toxic"}, {"measurement": "Activity", "setting": "[10]", "result": "Non-Toxic"}, {"measurement": "Activity", "setting": "[11]", "result": "Non-Toxic"}, {"measurement": "Activity", "setting": "[12]", "result": "Non-Toxic"}, {"measurement": "Activity", "setting": "[13]", "result": "Non-Toxic"}, {"measurement": "Activity", "setting": "[14]", "result": "Non-Toxic"}]}
{"smiles": "CSCC[C@H](NC(=O)[C@H](Cc1ccccc1)NC(=O)CNC(=O)CNC(=O)[C@@H](N)Cc1ccc(O)cc1)C(=O)O", "values": [{"measurement": "Stability", "setting": "[1]; 0.5 h, 350 µM", "result": "Unstable"}, {"measurement": "Activity", "setting": "[3]", "result": "Active"}]}
{"smiles": "NCCC(=O)N[C@@H](Cc1ccc(O)cc1)C(=O)NCC(=O)N[C@@H](Cc1ccccc1)C(N)=O", "note": "(H-[βAla]YGF-NH2)", "values": [{"measurement": "remaining at 3 h, 350 µM", "setting": "[2]", "result": 75, "unit": "%"}, {"measurement": "Activity", "setting": "[3]", "result": "inactive"}]}
